Experimental data reported in patent publication US10660335B2, “Plant disease control agent” (SDS BIOTECH K.K., priority 2011, dated 2020).

How the values were obtained:
Format in all cases: cell-based
Rhizoctonia solani = test: In vitro antimicrobial activity, mycelial growth on potato dextrose agar medium; conditions: Concentration 10 ppm
Pyricularia oryzae = conditions: Concentration 10 ppm; colony diameter vs control, 25° C., second day to seventh day
Botrytis cinerea = test: In vitro antimicrobial activity, mycelial growth on potato dextrose agar medium; conditions: Concentration 10 ppm

Substance: iso-C16 bacillomycin D [Comparative compound]
- Growth inhibition ratio (%) Rhizoctonia solani (Rhizoctonia solani): 9%
- Growth inhibition ratio (%) Pyricularia oryzae (Pyricularia oryzae): 35%
- Growth inhibition ratio (%) Botrytis cinerea (Botrytis cinerea): 39%
